Assay results as given in PubChem BioAssay AID2060510 (Molecular Pharmacology Branch, DTP, NCI, 2025).

System: 439559-082-T-J2-PDC spheroids viability
Experiment: Anticancer human tumor 439559-082-T-J2-PDC patient-derived colon adenocarcinoma cell line growth inhibition [GQUAD]
Conditions: for IC50: curve of first compound; for viability, T/C: stronger effect = lower value
Excerpt: DNA G-quadruplex Stabilizer Agents in Combinations in Complex Spheroids
A high-throughput screen of multi-cell type tumor spheroids was designed to identify active combinations of DNA G-quadruplex stabilizer agents and targeted small molecules. Complex spheroids include a stromal component modeled by human endothelial cells (HUVEC) and fibroblasts modeled by human mesenchymal stem cells (MSCs). The concentration ranges selected for each drug and investigational agent were based upon clinically achievable concentrations if the clinical Cmax of the agent was known.
Compounds. The drugs and investigational agents: pidnarulex (CX-5461; NSC782164), APTO-253 (NSC789042), BRACO-19 (NSC847499), peposertib (NSC802822), ceralasertib (NSC780249), elimusertib (NSC800525), camonsertib (NSC841442), AZD-1390 (NSC803789), olaparib (NSC753686), talazoparib (NSC767125), ART-558 (NSC835418), sotorasib (NSC818433), MRTX-1133 (NSC836407), SN-38 (NSC673596), topotecan (NSC609699), etoposide (NSC141540), doxorubicin (NSC123127), gemcitabine (NSC613327), 5-fluorouracil (NSC19893), paclitaxel (NSC125973), vemurafenib (NSC761431), panobinostat (NSC761190), R-306465 (JNJ-16241199; NSC773264), adavosertib (NSC754352), TP-3654 (NSC805149), carboplatin (NSC241240), KSQ-4279 (NSC840948), and staurosporine (NSC755774) were obtained from the National Cancer Institute (NCI) Developmental Therapeutics Program Chemical Repository (34). The FDA-approved anticancer drug set is available from the NCI Developmental Therapeutics Program. […] The stock solutions were prepared in dimethyl sulfoxide (DMSO, Sigma-Aldrich, St. Louis, MO, cat. D2650) at 800-fold the tested concentration and stored at -70 degrees C prior to their use. All drugs and investigational agents were tested over a range starting from a high concentration at or near the clinical Cmax and decreasing in half-log increments. If the clinical Cmax for an agent had not been determined, the highest concentration tested was 10 microM.
2.3 Cell Culture. All cells were maintained in an incubator at 37 degrees C and 5% CO2 with 95% humidity. The PDC lines were cultured according to standard operating procedures established by the NCI PDMR. All PDCs were thawed and cultured in Matrigel-coated flasks prepared with a working solution of 1X Ham's F-12 nutrient mix, without supplementation (Invitrogen, cat. 11765054), 100 U/mL penicillin-streptomycin (Invitrogen, cat. 15140122), and 2.5% Matrigel (Corning Inc., cat. 354248) for the first three passages. The 857933-349-R-J2-PDC line was cultured in 6C/Colon 1B media, which includes advanced DMEM/F-12 (Thermo Fisher Scientific, cat. 12634028), 10 mM HEPES (Thermo Fisher Scientific, cat. 15630080), 1X GlutaMAX supplement (Thermo Fisher Scientific, cat. 35050061), 0.1 mg/mL primocin (InvivoGen, cat. ant-pm-2), 10% defined fetal bovine serum, heat inactivated (HyClone Laboratories Inc., cat. SH30070.03HI), 50% L-WRN conditioned media (ATCC, cat. CRL-3276), 1.25 mM N-Acetyl-L-cysteine (Sigma-Aldrich, cat. A9165), 10 mM nicotinamide (Sigma-Aldrich, cat. N0636), 1X B-27 supplement (Thermo Fisher Scientific, cat. 17504044), 1X N-2 supplement (Thermo Fisher Scientific, cat. 17502048), 10 microM Y-27632 dihydrochloride (Tocris Bioscience, cat. 1254), and 50 ng/mL human EGF recombinant protein (Thermo Fisher Scientific, cat. PHG0311). The 485176-168-R4-J1-PDC line was cultured in Panc media, which includes all 6C/Colon 1B media components plus 100 ng/mL human FGF-10 (Thermo Fisher Scientific, cat. 100-26), 500 nM SB-431542 (Selleckchem, cat. S1067), and gastrin (Tocris, cat. 3006).
[…]

[1] = second compound 0.0316 µM, first compound 0.0316 µM
[2] = second compound 0.0316 µM, first compound 0.1 µM
[3] = second compound 0.0316 µM, first compound 0.316 µM
[4] = second compound 0.0316 µM, first compound 1 µM
[5] = second compound 0.0316 µM, first compound 3.16 µM
[6] = second compound 0.0316 µM, first compound 10 µM
[7] = second compound 0.1 µM, first compound 0.0316 µM
[8] = second compound 0.1 µM, first compound 0.1 µM
[9] = second compound 0.1 µM, first compound 0.316 µM
[10] = second compound 0.1 µM, first compound 1 µM
[11] = second compound 0.1 µM, first compound 3.16 µM
[12] = second compound 0.1 µM, first compound 10 µM
[13] = second compound 0.316 µM, first compound 0.0316 µM
[14] = second compound 0.316 µM, first compound 0.1 µM
[15] = second compound 0.316 µM, first compound 0.316 µM
[16] = second compound 0.316 µM, first compound 1 µM
[17] = second compound 0.316 µM, first compound 3.16 µM
[18] = second compound 0.316 µM, first compound 10 µM
[19] = second compound 1 µM, first compound 0.0316 µM
[20] = second compound 1 µM, first compound 0.1 µM
[21] = second compound 1 µM, first compound 0.316 µM
[22] = second compound 1 µM, first compound 1 µM
[23] = second compound 1 µM, first compound 3.16 µM
[24] = second compound 1 µM, first compound 10 µM
[25] = second compound 3.16 µM, first compound 0.0316 µM
[26] = second compound 3.16 µM, first compound 0.1 µM
[27] = second compound 3.16 µM, first compound 0.316 µM
[28] = second compound 3.16 µM, first compound 1 µM
[29] = second compound 3.16 µM, first compound 3.16 µM
[30] = second compound 3.16 µM, first compound 10 µM
[31] = second compound 10 µM, first compound 0.0316 µM
[32] = second compound 10 µM, first compound 0.1 µM
[33] = second compound 10 µM, first compound 0.316 µM
[34] = second compound 10 µM, first compound 1 µM
[35] = second compound 10 µM, first compound 3.16 µM
[36] = second compound 10 µM, first compound 10 µM
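Further: spheroids exposed to the agents for 7 days before readout.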
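Wherever viability, T/C is given: percent of luminescence signal in DMSO vehicle wells taken as 100% viability.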

For `C#Cc1c(F)ccc2cc(O)cc(-c3ncc4c(N5CC6CCC(C5)N6)nc(OCC56CCCN5CC(F)C6)nc4c3F)c12` (centres undefined) + Cc1[nH]c2ccc(F)cc2c1-c1nc2c3cccnc3c3ncccc3c2[nH]1, the IC50 (second compound 0.0316 µM) was 1540 nM, the IC50 (second compound 0.1 µM) was 1620 nM and the IC50 (second compound 0.316 µM) was 1530 nM. For the same compound, the IC50 (second compound 1 µM) was 1610 nM, the IC50 (second compound 3.16 µM) was 709 nM and the IC50 (second compound 10 µM) was 1010 nM. For the same compound, the viability, T/C [1] was 97%, the viability, T/C [2] was 104% and the viability, T/C [3] was 87.6%. For the same compound, the viability, T/C [4] was 71.9%, the viability, T/C [5] was 13.7% and the viability, T/C [6] was 9.66%. For the same compound, the viability, T/C [7] was 112%, the viability, T/C [8] was 96.4% and the viability, T/C [9] was 109%. For the same compound, the viability, T/C [10] was 79.5%, the viability, T/C [11] was 9.72% and the viability, T/C [12] was 7.59%. For the same compound, the viability, T/C [13] was 105%, the viability, T/C [14] was 97.9% and the viability, T/C [15] was 90.8%. The viability, T/C [16] was 74.2%, the viability, T/C [17] was 7.82% and the viability, T/C [18] was 7.52%. For the same compound, the viability, T/C [19] was 91.5%, the viability, T/C [20] was 91.9% and the viability, T/C [21] was 101%. It also gave a viability, T/C [22] of 79.9%, a viability, T/C [23] of 8.22% and a viability, T/C [24] of 5.9%. The viability, T/C [25] was 72.2%, the viability, T/C [26] was 72.5% and the viability, T/C [27] was 70.8%. The viability, T/C [28] was 41.1%, the viability, T/C [29] was 5.26% and the viability, T/C [30] was 2.89%. It also gave a viability, T/C [31] of 85.2%, a viability, T/C [32] of 69.3% and a viability, T/C [33] of 93%. For the same compound, the viability, T/C [34] was 50.5%, the viability, T/C [35] was 2.77% and the viability, T/C [36] was 3.31%.

`CCCS(=O)(=O)Nc1ccc(F)c(C(=O)c2c[nH]c3ncc(-c4ccc(Cl)cc4)cc23)c1F` + Cc1[nH]c2ccc(F)cc2c1-c1nc2c3cccnc3c3ncccc3c2[nH]1 was tested, and the IC50 (second compound 0.0316 µM) was 2750 nM, the IC50 (second compound 0.1 µM) was 2640 nM and the IC50 (second compound 0.316 µM) was 3100 nM. For the same compound, the IC50 (second compound 1 µM) was 3130 nM, the IC50 (second compound 3.16 µM) was 2040 nM and the IC50 (second compound 10 µM) was 2610 nM. For the same compound, the viability, T/C [1] was 108%, the viability, T/C [2] was 96.2% and the viability, T/C [3] was 103%. The viability, T/C [4] was 78.5%, the viability, T/C [5] was 46.5% and the viability, T/C [6] was 21.1%. The viability, T/C [7] was 104%, the viability, T/C [8] was 94.5% and the viability, T/C [9] was 95%. For the same compound, the viability, T/C [10] was 83.8%, the viability, T/C [11] was 43.5% and the viability, T/C [12] was 22.7%. For the same compound, the viability, T/C [13] was 105%, the viability, T/C [14] was 100% and the viability, T/C [15] was 89.8%. It also gave a viability, T/C [16] of 80.2%, a viability, T/C [17] of 47.6% and a viability, T/C [18] of 23%. It also gave a viability, T/C [19] of 108%, a viability, T/C [20] of 97.3% and a viability, T/C [21] of 90.4%. For the same compound, the viability, T/C [22] was 75.1%, the viability, T/C [23] was 48.6% and the viability, T/C [24] was 20.8%. The viability, T/C [25] was 78.7%, the viability, T/C [26] was 86% and the viability, T/C [27] was 79.5%. The viability, T/C [28] was 65.2%, the viability, T/C [29] was 40.5% and the viability, T/C [30] was 16.2%. The viability, T/C [31] was 81.2%, the viability, T/C [32] was 67.6% and the viability, T/C [33] was 71.5%. The viability, T/C [34] was 67.6%, the viability, T/C [35] was 46.1% and the viability, T/C [36] was 13.5%.
